Results from US6372797B1, “Treatment of menstrual function” (Knoll Pharmaceutical Company, priority 1999, dated 2002).

Columns and labels:
[1] = target: [3H]Noradenaline reuptake; test: in vitro [3H]noradrenaline reuptake inhibition in rat brain tissue; type: biochemical; settings: means of ≧ 3 separate determinations
[3H]Dopamine reuptake = in vitro [3H]dopamine reuptake inhibition in rat brain tissue; type: biochemical; settings: means of ≧ 3 separate determinations

Row | Compound | Ki [1] | Ki ([3H]Dopamine reuptake)
1 | CC(NC(C)(C)C)C(=O)c1cccc(Cl)c1 (stereo not shown) [Bupropion] | 2590 nM | 409 nM
2 | COc1ccc(C(CN(C)C)C2(O)CCCCC2)cc1 (stereo not shown) [Venlafaxine] | 196 nM | 2590 nM
